Assay in all cases: biochemical
In assay [1] the target is recombinant human MMP-13 (Homo sapiens, UniProt P45452). The following applies: read-out: MMP-13 IC50.
For assay [2], the target named is T1, recombinant human MMP-1 (Homo sapiens, UniProt P03956).
T1 construct: made in house; host or cells: transfected HT-1080 cells (provided by Dr. Harold Welgus, Washington University)
T1 sequence (P03956 100-469): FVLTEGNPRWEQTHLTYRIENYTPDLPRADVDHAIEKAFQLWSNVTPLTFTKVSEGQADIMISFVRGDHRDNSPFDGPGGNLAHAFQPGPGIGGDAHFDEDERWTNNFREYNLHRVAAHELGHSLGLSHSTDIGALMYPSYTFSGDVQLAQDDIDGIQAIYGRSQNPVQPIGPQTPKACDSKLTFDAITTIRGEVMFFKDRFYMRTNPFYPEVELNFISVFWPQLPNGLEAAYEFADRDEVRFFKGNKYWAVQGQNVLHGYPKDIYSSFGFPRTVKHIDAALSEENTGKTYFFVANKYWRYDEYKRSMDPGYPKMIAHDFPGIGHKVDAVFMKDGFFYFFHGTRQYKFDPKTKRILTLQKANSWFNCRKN
The settings on record: read-out: MMP-1 IC50.

Assay [3] deals with T2, recombinant human MMP-2 (Homo sapiens, UniProt P08253).
T2 sequence (P08253 110-660): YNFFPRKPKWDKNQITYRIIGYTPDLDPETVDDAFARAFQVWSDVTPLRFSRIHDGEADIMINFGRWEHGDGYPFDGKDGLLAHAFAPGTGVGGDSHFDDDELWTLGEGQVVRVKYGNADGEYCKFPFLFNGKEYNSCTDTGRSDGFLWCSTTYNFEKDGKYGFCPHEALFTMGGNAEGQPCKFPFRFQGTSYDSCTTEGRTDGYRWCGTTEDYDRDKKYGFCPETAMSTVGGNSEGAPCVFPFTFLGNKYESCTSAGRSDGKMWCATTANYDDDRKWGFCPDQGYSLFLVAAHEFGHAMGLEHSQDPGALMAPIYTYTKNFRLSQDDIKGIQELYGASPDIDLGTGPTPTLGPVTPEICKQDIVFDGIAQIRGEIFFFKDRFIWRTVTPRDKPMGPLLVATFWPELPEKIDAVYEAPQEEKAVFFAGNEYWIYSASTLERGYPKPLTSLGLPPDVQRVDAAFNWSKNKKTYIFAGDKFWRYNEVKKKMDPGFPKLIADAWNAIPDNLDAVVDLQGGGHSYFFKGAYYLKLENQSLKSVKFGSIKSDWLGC
The settings on record: read-out: MMP-2 IC50.

For assay [4], the target named is recombinant human MMP-9 (Homo sapiens, UniProt P14780). The following applies: read-out: MMP-9 IC50.
Chain of recombinant human MMP-9 (P14780 107-707 limits assumed): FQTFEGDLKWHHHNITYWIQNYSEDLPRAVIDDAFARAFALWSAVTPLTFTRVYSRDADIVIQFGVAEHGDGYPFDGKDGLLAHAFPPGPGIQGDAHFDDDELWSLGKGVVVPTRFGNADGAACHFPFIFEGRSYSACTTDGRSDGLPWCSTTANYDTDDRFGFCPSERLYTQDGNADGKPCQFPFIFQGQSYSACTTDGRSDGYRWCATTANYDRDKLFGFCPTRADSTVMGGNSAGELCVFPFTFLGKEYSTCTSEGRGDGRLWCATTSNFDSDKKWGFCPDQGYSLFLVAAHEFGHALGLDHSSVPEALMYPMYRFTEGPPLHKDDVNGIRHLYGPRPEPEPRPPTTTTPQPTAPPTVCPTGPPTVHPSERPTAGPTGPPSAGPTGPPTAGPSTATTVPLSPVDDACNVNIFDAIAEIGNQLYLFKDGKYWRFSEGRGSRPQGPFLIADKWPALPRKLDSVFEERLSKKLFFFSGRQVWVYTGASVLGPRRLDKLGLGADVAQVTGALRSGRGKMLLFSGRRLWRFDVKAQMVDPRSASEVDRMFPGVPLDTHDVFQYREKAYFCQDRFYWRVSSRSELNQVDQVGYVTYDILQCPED

Like-named read-outs stand apart in the source and are kept apart here.

The term IC50 denotes the concentration at which inhibition is half-maximal. Turning to `O=C(CS(=O)(=O)c1ccc(Oc2ccccc2)cc1)NO` [Example 1], the IC50 in assay [1] (Inhibition Table A) was found to be 5.1 nM; in assay [2] (Inhibition Table A), 6600 nM; in assay [3] (Inhibition Table A) it was 2.6 nM; in assay [4] (Inhibition Table A), 31.6 nM.

`CC(C)(C(=O)NO)S(=O)(=O)c1ccc(Oc2ccccc2)cc1` [Example 2]: the half-inhibitory concentration (IC50) was 0.25 nM in assay [1] (Inhibition Table A), 220 nM in assay [2] (Inhibition Table A), 0.1 nM in assay [3] (Inhibition Table A) and 1.4 nM in assay [4] (Inhibition Table A).

Turning to `CCCCOC1CCN(c2ccc(S(=O)(=O)C3(C(=O)NO)CCOCC3)cc2)CC1` [Example 16], the IC50 was 2.4 nM in assay [1] (Inhibition Table A), over 10000 nM in assay [2] (Inhibition Table A), 100 nM in assay [3] (Inhibition Table A) and 2500 nM in assay [4] (Inhibition Table A).

Consider `C#CCN1CCC(C(=O)NO)(S(=O)(=O)c2ccc(Sc3ccc(F)cc3)cc2)CC1` [Example 24], for which the IC50 was 0.4 nM in assay [1] (Inhibition Table A), over 10000 nM in assay [2] (Inhibition Table A), 1 nM in assay [3] (Inhibition Table A) and 3.7 nM in assay [4] (Inhibition Table A).

Consider `O=C(NO)C1(S(=O)(=O)c2ccc(Oc3ccc(-n4cncn4)cc3)cc2)CCOCC1` [Example 26], for which the IC50 in assay [1] (Inhibition Table A) was determined as 0.5 nM; in assay [2] (Inhibition Table A), 7700 nM; in assay [3] (Inhibition Table A) it was 0.2 nM; in assay [4] (Inhibition Table A), 7 nM.

As for `COCCN1CCC(C(=O)NO)(S(=O)(=O)c2ccc(Oc3ccccc3)cc2)CC1` [Example 30], the IC50 in assay [1] (Inhibition Table B) is 0.1 nM; in assay [2] (Inhibition Table B) it was 350 nM; in assay [3] (Inhibition Table B), 0.1 nM; in assay [4] (Inhibition Table B), 0.3 nM.

Consider `O=C(NO)C1(S(=O)(=O)c2ccc(Sc3ccccc3)cc2)CC[S+]([O-])CC1` (stereo not drawn) [Example 113], for which the IC50 in assay [1] (Inhibition Table B) is 4 nM; in assay [2] (Inhibition Table B) it was over 10000 nM; in assay [3] (Inhibition Table B) it was 0.9 nM.

With `Nc1ccc(Sc2ccc(S(=O)(=O)C3(C(=O)NO)CCOCC3)cc2)cc1` [Example 120, 4-[[4-[(4-aminophenyl)thio]phenyl]-sulfonyl]tetrahydro-N-hydroxy-2H-pyran-4-carboxamide], the IC50 in assay [1] (Inhibition Table B) was 0.4 nM; in assay [2] (Inhibition Table B) it was 4000 nM; in assay [3] (Inhibition Table B), 0.4 nM.

Take `Cc1nc2cc(Oc3ccc(S(=O)(=O)C4(C(=O)NO)CCOCC4)cc3)ccc2s1` [Example 121, tetrahydro-N-hydroxy-4-[[4-[(2-methyl-5-benzothiazolyl)-oxy]phenyl]sulfonyl]-2H-pyran-4-carboxamide]: the figures for the IC50 in assay [1] (Inhibition Table B), in assay [2] (Inhibition Table B) and in assay [3] (Inhibition Table B) were 0.2 nM, 1200 nM and under 0.1 nM, respectively.

On to `O=C(NO)C1(S(=O)(=O)c2ccc(Oc3ccc(Cl)c(F)c3)cc2)CCOCC1` [Example 122, 4-[[4-(4-chloro-3-fluorophenoxy)phenyl]sulfonyl]-tetrahydro-N-hydroxy-2H-pyran-4-carboxamide], for which the results for the IC50 in assay [1] (Inhibition Table B), in assay [2] (Inhibition Table B) and in assay [3] (Inhibition Table B) were 0.15 nM, 600 nM and 0.1 nM, respectively.

For the molecule `CCOC(=O)N1CCN(c2ccc(S(=O)(=O)C3(C(=O)NO)CCOCC3)cc2)CC1` [Example 126], the IC50 in assay [1] (Inhibition Table B) was found to be 10 nM; in assay [2] (Inhibition Table B) it was 8000 nM; in assay [3] (Inhibition Table B), 11.3 nM.

Take `O=C(NO)C1(S(=O)(=O)c2ccc(N3CCN(CCO)CC3)cc2)CCOCC1` [Example 127]: the IC50 in assay [1] (Inhibition Table B) was 40 nM; in assay [2], over 10000 nM; in assay [3] (Inhibition Table B), 37 nM.

As to `COc1ccccc1N1CCN(c2ccc(S(=O)(=O)C3(C(=O)NO)CCOCC3)cc2)CC1` [Example 128], the IC50 is 20 nM in assay [1] (Inhibition Table B), over 10000 nM in assay [2] (Inhibition Table B) and 23.8 nM in assay [3] (Inhibition Table B).

With `O=C(NCC(F)(F)F)C1CCN(c2ccc(S(=O)(=O)C3(C(=O)NO)CCOCC3)cc2)CC1` [Example 180], the figures for the IC50 in assay [1] (Inhibition Table B), in assay [2] (Inhibition Table B) and in assay [3] (Inhibition Table B) were 4 nM, 5000 nM and 128 nM, respectively.

As for `O=C(NCc1ccc(F)cc1)C1CCN(c2ccc(S(=O)(=O)C3(C(=O)NO)CCOCC3)cc2)CC1` [Example 197], the IC50 in assay [1] (Inhibition Table B) amounted to 8 nM; in assay [2] (Inhibition Table B) it was 7000 nM; in assay [3] (Inhibition Table B) it was 145 nM.

On to `O=C(C1CCCCC1)N1CCN(c2ccc(S(=O)(=O)C3(C(=O)NO)CCOCC3)cc2)CC1` [Example 200], for which the half-maximal inhibitory concentration (IC50) in assay [1] (Inhibition Table B) was 17.5 nM; in assay [2] (Inhibition Table B) it was over 10000 nM; in assay [3] (Inhibition Table B), 24 nM.

For the molecule `O=C(C1CCc2ccccc2C1)N1CCN(c2ccc(S(=O)(=O)C3(C(=O)NO)CCOCC3)cc2)CC1` (stereo not drawn) [Example 201], the IC50 is 13.6 nM in assay [1] (Inhibition Table B), over 10000 nM in assay [2] (Inhibition Table B) and 22.4 nM in assay [3] (Inhibition Table B).

For `O=C(N1CCCCC1)N1CCN(c2ccc(S(=O)(=O)C3(C(=O)NO)CCOCC3)cc2)CC1` [Example 206], the IC50 in assay [1] (Inhibition Table B) was 20 nM; in assay [2] (Inhibition Table B) it was over 10000 nM; in assay [3] (Inhibition Table B) it was over 10 nM.

`O=C(NO)C1(S(=O)(=O)c2ccc(-c3ccccc3)cc2)CCOCC1` [Example 213]: the IC50 in assay [1] (Inhibition Table B) is under 1 nM; in assay [2] (Inhibition Table B), 310 nM; in assay [3] (Inhibition Table B) it was under 1 nM.

In the case of `O=C(NO)C1(S(=O)(=O)c2ccc(-c3ccsc3)cc2)CCOCC1` [Example 215], the results for the IC50 in assay [1] (Inhibition Table B), in assay [2] (Inhibition Table B) and in assay [3] (Inhibition Table B) were under 1 nM, 250 nM and under 1 nM, respectively.

Regarding `O=C(NO)C1(S(=O)(=O)c2ccc(-c3cccc(C(F)(F)F)c3)cc2)CCOCC1` [Example 219], the IC50 in assay [1] (Inhibition Table B) is under 1 nM; in assay [2] (Inhibition Table B), over 10000 nM; in assay [3] (Inhibition Table B), under 1 nM.

Regarding `O=C(NO)C1(S(=O)(=O)c2ccc(-c3cccc4ccccc34)cc2)CCOCC1` [Example 224], the 50% inhibitory concentration (IC50) in assay [1] (Inhibition Table B) is 16.7 nM; in assay [2] (Inhibition Table B), over 10000 nM; in assay [3] (Inhibition Table B), 18.1 nM.

As for `Cc1ccccc1-c1ccc(S(=O)(=O)C2(C(=O)NO)CCOCC2)cc1` [Example 225], the results for the IC50 in assay [1] (Inhibition Table B), in assay [2] (Inhibition Table B) and in assay [3] (Inhibition Table B) were 70 nM, over 10000 nM and 54 nM, respectively.

With `CC(C)(C)c1ccc(-c2ccc(S(=O)(=O)C3(C(=O)NO)CCOCC3)cc2)cc1` [Example 226], the IC50 is 6 nM in assay [1] (Inhibition Table B), over 10000 nM in assay [2] (Inhibition Table B) and 18.6 nM in assay [3] (Inhibition Table B).

As to `O=C(NO)C1(S(=O)(=O)c2ccc(-c3ccc4ccccc4c3)cc2)CCOCC1` [Example 227], the IC50 is under 1 nM in assay [1] (Inhibition Table B), over 10000 nM in assay [2] (Inhibition Table B) and under 1 nM in assay [3] (Inhibition Table B).

For the molecule `O=Cc1cccc(-c2ccc(S(=O)(=O)C3(C(=O)NO)CCOCC3)cc2)c1` [Example 228], the IC50 in assay [1] (Inhibition Table B) was under 1 nM; in assay [2] (Inhibition Table B) it was 600 nM; in assay [3] (Inhibition Table B), under 1 nM.

`O=Cc1ccccc1-c1ccc(S(=O)(=O)C2(C(=O)NO)CCOCC2)cc1` [Example 230]: the IC50 was over 100 nM in assay [1] (Inhibition Table B), over 10000 nM in assay [2] (Inhibition Table B) and over 100 nM in assay [3] (Inhibition Table B).

For the molecule `O=Cc1ccc(-c2ccc(S(=O)(=O)C3(C(=O)NO)CCOCC3)cc2)cc1` [Example 231], the results for the IC50 in assay [1] (Inhibition Table B), in assay [2] (Inhibition Table B) and in assay [3] (Inhibition Table B) were under 1 nM, 650 nM and under 1 nM, respectively.

For the molecule `Nc1cccc(-c2ccc(S(=O)(=O)C3(C(=O)NO)CCOCC3)cc2)c1` [Example 232], the IC50 was under 1 nM in assay [1] (Inhibition Table B), under 100 nM in assay [2] (Inhibition Table B) and under 1 nM in assay [3] (Inhibition Table B).

Turning to “N,N-dimethyl-5-[4-[[tetrahydro-4-1[(hydroxyamino)-carbonyl]-2H-pyran-4-yl]sulfonyl]-phenoxy]-1H-indole-2-carboxamide, Trifluoroacetic Acid Salt [Example 124]”, the IC50 was found to be 1.1 nM in assay [1] (Inhibition Table B), 1000 nM in assay [2] (Inhibition Table B) and 0.5 nM in assay [3] (Inhibition Table B).
